{"source": "patent US11491155B2", "about": "“Salt of a pyrimido[6,1-A]isoquinolin-4-one compound” (VERONA PHARMA PLC, priority 2015, dated 2022)", "key": {"[1]": {"test": "Aerosol performance of DPI formulations (Cyclohaler, NGI)", "format": "physicochemical", "description": "Capsules were hand filled with 20 mg of the 1% w/w RPL554 free base or salt variants: lactose blends, i.e. 200 μg salt per capsule, the fill weight of each capsule was recorded. Due to differences in the molecular weights of the RPL554 salt forms, the amount of RPL554 emitted per actuation varied as a function of molecular weight. The formulations were prepared with no adjustment for differences in molecular weight of the salts.\nThe powders were delivered via the Cyclohaler® DPI (PCH Pharmachemie, BV, The Netherlands). The Cyclohaler® DPI is a low resistance device and was operated at a flow rate of 90 L/min for 2.7 seconds. The cut off diameters for the NGI collection stages were calculated for the 90 L/min flow rate using the NGI User Guide (MSP Corporation, 2008).\nThe ED, FPD and FPF were determined from inertial impaction tests performed following the deposition of 5 capsules of each formulation into the NGI. For each capsule tested the combined weight of the Cyclohaler® and capsule was determined before and after operation to check that the dose had been delivered. The NGI was fitted with a pre-separator for these determinations. The central cup of the pre-separator was filled with 15 mL of diluent. Following deposition, the solution was recovered in a 20 mL volumetric flask and made up to volume with diluent. RPL554 was quantitatively recovered from the device, induction port and each of the NGI collection stages with 10 mL of diluent.\nThe volume of diluent used for each sample was selected to ensure RPL554 concentrations were above the limit of quantitation."}, "[2]": {"test": "Primary particle size analysis by laser light diffraction (Mastersizer 2000)", "format": "physicochemical", "conditions": "micronised, mean n=3", "description": "A Mastersizer 2000 fitted with a Scirocco 2000 dry powder dispersion unit (Malvern Instruments Ltd, UK) was used to analyse the primary particle size of the micronised RPL554 and salt variants. The salts (50 mg) were automatically sampled via a vibrating feed control at a feeder rate of 60% and dispersed in compressed air at a pressure of 3 bar."}, "[3]": {"test": "Physico-chemical characteristics of salt candidates: solubility in water, pH of aqueous suspension/solution, form post water maturation", "conditions": "listed as Ethane sulfonic", "method": "The physico-chemical characteristics of the salt candidates were determined."}, "[4]": {"test": "RPL554 content and content uniformity of 1% w/w lactose powder blends", "format": "physicochemical", "description": "Batches (approximately 5 g) of 1% w/w RPL554 free base or salt variants: lactose blends were prepared. In brief, the RPL554 free base or salt plus a small quantity of lactose was passed through a 38 μm sieve. The sieved material plus the remaining lactose was mixed in a glass mortar prior to transfer to a stainless steel screw cap jar and further mixing (10 minutes at 46 rpm) conducted using a Turbula blender. The composition of the dry powder blend was 0.05 g API and 4.95 g lactose.\nIn order to determine the content uniformity of the blends, aliquots (approx. 20 mg) of powder were sampled from each blend, accurately weighed, and diluted to volume in 10 mL volumetric flasks with diluent. The flasks were sonicated for 3 minutes before samples were transferred to HPLC vials for analysis."}, "[5]": {"test": "Solubility of RPL554 salts in saline solutions, water and aqueous buffer solutions at 25° C. (HPLC)", "format": "physicochemical", "conditions": "24 hours", "description": "The behaviour of salts of RPL554 were examined under the following conditions: • Phosphate buffered to pH 3.5 in saline, 0.9% w/w at 25° C. • Acetate buffered to pH 4.5 in saline, 0.9% w/w at 25° C. • Citro-Phosphate buffered to pH 4.5 in saline, 0.9% w/w at 25° C. • Phosphate buffered to pH 6.5 in saline, 0.9% w/w at 25° C. • Saline, 0.7, 0.9 and 1.1% w/w at 25° C. • Deionised water at 25° C.\nRPL554 salts and RPL554, ca 50 mg, were suspended in the various aqueous media, 1 ml, with agitation at the specified temperatures for 24 hours. The solids were isolated and dried in vacuo at 45° C. The retained filtrates were examined by HPLC.\nAdditional RPL554 methane sulfonate salt, ca 50 mg, was charged to the water mixtures at 25° C. and 37.5° C. in order to afford a suspension. In all other cases, suspensions were obtained.\nThe solubility of the RPL554 was determined by HPLC using a single point calibration and is expressed as RPL554 and not as the salt and are detailed in Table 6 and Table 7 for the various conditions utilised."}, "[6]": {"test": "Solubility of RPL554 and salts in pMDI propellant systems", "format": "physicochemical", "description": "Quantitative assessment of the solubility of RPL554 and salt variants in the propellant systems of selected pMDI formulations (three replicates of each formulation) was performed. pMDIs were directly coupled to an adaptor fitted with a 0.20 μm filter unit connected, in series to a 21 G needle, which was inserted via a rubber septum, into a cooled multi-dose glass vial. A 19 G filter needle was inserted through the septum to aid evaporation of propellant from the vial. Prior to the filtration process the vial was cooled in a mixture of dry ice and acetone to ensure that the pressure within the vial was reduced in order to facilitate collection of the output from the pMDI. Ten consecutive actuations of the pMDI were fired through the filter and collected in the vial. Between actuations the canister was shaken for approximately 10 seconds. The pMDI unit was weighed before and after the filtering procedure. The filtrate was stored at room temperature and allowed to evaporate to dryness.\nSamples were recovered by carefully rinsing the inside of the vials with 1 mL of recovery solution before transfer to HPLC vials for analysis. The estimated % of RPL554 solubilised within the canister was calculated from the starting mass of RPL554 within the canisters, which in turn was calculated using the theoretical molecular weight values of the RPL554 free base and salt variants shown in Table 13. The theoretical molecular weight estimates of the salts were provided by Verona."}, "[7]": {"test": "Intrinsic dissolution of compressed tablet, pH 7.0, 37° C. (Sirius inForm)", "format": "physicochemical", "conditions": "for mass dissolved: initial peak", "description": "The dissolution assay (pH-dependent sample dissolution) was investigated using the Sirius inForm.\nDissolution of a compressed tablet of the compound was monitored in a pH 7.0 aqueous dissolution experiment (0.15 M NaCl) at 37° C. using UV-absorption spectroscopy in 2 hour experiments. A tablet with a diameter of 3 mm, requiring approximate weights of 10 mg was compressed under a weight of 100 kg load force. Only one face of the tablet was exposed to the dissolution medium, which contained a 0.01 M acetate/phosphate buffer system to minimise perturbation of the experimental pH from dissolution of the drug.\nStirring of the solution was continuous and at a constant rate of 100 rpm. The absorption data was converted to absolute sample weights using previously determined, pH-dependent, molar extinction coefficients. An appropriate wavelength range was chosen to ensure that spectroscopic data with an absorption value of <1.3 was analysed, avoiding erroneous dissolution results due to saturation of the UV light source."}, "[8]": {"conditions": "pH 7.0, 0.15 M NaCl, 37° C., listed as ethanesulfonate salt"}}}
{"compound": "COc1cc2c(cc1OC)-c1c/c(=N\\c3c(C)cc(C)cc3C)n(CCNC(N)=O)c(=O)n1CC2", "note": "[Ethanesulfonate, RPL554 ethanesulfonate]", "values": [{"measurement": "†Measured Mass of 1% w/w Blend Delivered per capsule", "setting": "[1]; Cyclohaler, 5 capsules containing 20 mg powder blend, mass from weight change of capsule-loaded device", "value": 20.18, "unit": "mg"}, {"measurement": "††RPL554 Emitted (μg) per capsule (B)", "setting": "[1]; Cyclohaler, NGI, mass determined from HPLC analysis of recovered samples, as RPL554 base", "value": 111.09, "unit": "µg"}, {"measurement": "Calculated RPL554 Content (μg) per capsule (A)", "setting": "[1]; calculated from delivered blend mass and measured blend content, as RPL554 base", "value": 162.00, "unit": "µg"}, {"measurement": "D (0.1) (μm)", "setting": "[2]", "value": 0.56, "unit": "μm"}, {"measurement": "D (0.5) (μm)", "setting": "[2]", "value": 1.43, "unit": "μm"}, {"measurement": "D (0.9) (μm)", "setting": "[2]", "value": 4.18, "unit": "μm"}, {"measurement": "pH of aqueous suspension/solution", "setting": "[3]", "value": 3.04}, {"measurement": "Measured Blend Content (% Theoretical)", "setting": "[4]; 1% w/w RPL554 variant: lactose powder blend, expressed as RPL554 base", "value": 98.79, "unit": "% Theoretical"}, {"measurement": "**Adjusted RPL554 Content per capsule", "setting": "[4]; per 20 mg capsule of 1% w/w lactose blend, adjusted for measured blend content (% theoretical), as RPL554 base", "value": 160.55, "unit": "µg"}, {"measurement": "Solubility as RPL554 (mg/ml) in 0.7 w/w % Saline", "setting": "[5]", "value": 1.62, "unit": "mg/mL"}, {"measurement": "Solubility as RPL554 (mg/ml) in 0.9 w/w % Saline", "setting": "[5]", "value": 0.79, "unit": "mg/mL"}, {"measurement": "Solubility as RPL554 (mg/ml) in 1.1 w/w % Saline", "setting": "[5]", "value": 1.27, "unit": "mg/mL"}, {"measurement": "Solubility as RPL554 (mg/ml) in Water", "setting": "[5]; deionised water", "value": 21.37, "unit": "mg/mL"}, {"measurement": "Calculated RPL554 solubilised (%)", "setting": "[6]; in HFA 134", "value": 5.56, "unit": "%"}, {"measurement": "Calculated Solubilised RPL554 μg per 50 μL actuation", "setting": "[6]; in HFA 134", "value": 9.03, "unit": "µg"}, {"measurement": "Solubility RPL554", "setting": "[6]; in HFA 134, BLQ = below limit of quantitation (0.06 μg/mL)", "value": 126.81, "unit": "µg/g"}, {"measurement": "Solubility RPL554 (μg/g)", "setting": "[6]; in HFA 134, BLQ = below limit of quantitation (0.06 μg/mL), listed as ethanesulfonate", "value": "quantifiable levels of solubility"}, {"measurement": "Estimated RPL554 solubilised (%)", "setting": "[6]; in HFA 134 with Ethanol/Tween", "value": 10.96, "unit": "%"}, {"measurement": "Estimated Solubilised RPL554 μg per 50 μL actuation", "setting": "[6]; in HFA 134 with Ethanol/Tween", "value": 17.81, "unit": "µg"}, {"measurement": "Solubility RPL554", "setting": "[6]; in HFA 134 with Ethanol/Tween", "value": 266.59, "unit": "µg/g"}, {"measurement": "Calculated RPL554 solubilised (%)", "setting": "[6]; in HFA 227", "value": "BLQ"}, {"measurement": "Calculated Solubilised RPL554 μg per 50 μL actuation", "setting": "[6]; in HFA 227", "value": "BLQ"}, {"measurement": "Solubility RPL554 (μg/g)", "setting": "[6]; in HFA 227", "value": "BLQ"}, {"measurement": "dissolution compared with free base / other salts", "setting": "[7]; 2 hour experiments", "value": "higher dissolution than the rest of the salts"}, {"measurement": "mass dissolved", "setting": "[7]; at 5.7 min", "value": 600, "unit": "µg"}, {"measurement": "mass dissolved", "setting": "[7]; at 13 min", "value": 700, "unit": "µg"}, {"measurement": "Mass of salt (μg) dissolved after 2 hours, Average", "setting": "[7]; [8]", "value": 355, "unit": "µg"}, {"measurement": "Mass of salt (μg) dissolved after 2 hours, Test 1", "setting": "[7]; [8]", "value": 300, "unit": "µg"}, {"measurement": "Mass of salt (μg) dissolved after 2 hours, Test 2", "setting": "[7]; [8]", "value": 410, "unit": "µg"}]}
